Reference: ChEMBL document CHEMBL1201862, “PubChem BioAssay data set” (2004)
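All cell lines were grown in 96-well plates and treated with compound for 48 hours. GI50 = concentration required for 50% inhibition of growth.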 Active and inactive are the calls of the source. No stated cut-off is given here; in the data, active = GI50 up to about 1.1 µM and inactive = higher.

Key:
Experiment in all cases: DTP human tumour cell line panel, 48 h
CAKI-1 = system: CAKI-1
CCRF-CEM = system: CCRF-CEM
COLO 205 = system: COLO 205
HCT-116 = system: HCT-116
HCT-15 = system: HCT-15
HL-60 = system: HL-60
HOP-92 = system: HOP-92
HT-29 = system: HT-29
K562 = system: K562
MDA-N = system: MDA-N
MOLT-4 = system: MOLT-4
NCI-H226 = system: NCI-H226
NCI/ADR-RES = system: NCI/ADR-RES
PC-3 = system: PC-3
RPMI-8226 = system: RPMI-8226
SNB-19 = system: SNB-19
SW-620 = system: SW-620
U-251 = system: U-251
OVCAR-8 = system: OVCAR-8

Structure (SMILES) | GI50 (CAKI-1) | GI50 (CCRF-CEM) | GI50 (COLO 205) | GI50 (HCT-116) | GI50 (HCT-15) [µM] | GI50 (HL-60) | GI50 (HOP-92) | GI50 (HT-29) | GI50 (K562) | GI50 (MDA-N) | GI50 (MOLT-4) | GI50 (NCI-H226) | GI50 (NCI/ADR-RES) | GI50 (PC-3) | GI50 (RPMI-8226) | GI50 (SNB-19) | GI50 (SW-620) | GI50 (U-251) | GI50 (OVCAR-8)
O=C(c1cccs1)N1CCc2ccccc2C1 | > 100 µM (inactive) | 40.4 µM (inactive) | > 100 µM (inactive) | 38.2 µM (inactive) | > 100 | 30.7 µM (inactive) | 26.6 µM (inactive) | > 100 µM (inactive) | 39.1 µM (inactive) | 32.2 µM (inactive) | > 100 µM (inactive) | > 100 µM (inactive) | 42.1 µM (inactive) | > 100 µM (inactive) | 85.9 µM (inactive) | > 100 µM (inactive) | > 100 µM (inactive) | > 100 µM (inactive) | –
O=C(OCc1ccccc1)N1CCNCCN(C(=O)OCc2ccccc2)CCNCC1 | 15 µM (inactive) | 36.5 µM (inactive) | – | 16.2 µM (inactive) | 32.5 | 24.3 µM (inactive) | 21.1 µM (inactive) | 17.7 µM (inactive) | 25.5 µM (inactive) | 15.6 µM (inactive) | 18 µM (inactive) | 36.9 µM (inactive) | 75.7 µM (inactive) | 25.9 µM (inactive) | 20.2 µM (inactive) | 47.5 µM (inactive) | 32.1 µM (inactive) | 22 µM (inactive) | 55.1 µM (inactive)
CCOP(=O)(OCC)/C(C#N)=C/c1cccn1N(C)C | > 100 µM (inactive) | > 100 µM (inactive) | > 100 µM (inactive) | 3.37 µM (inactive) | > 100 | > 100 µM (inactive) | > 100 µM (inactive) | > 100 µM (inactive) | > 100 µM (inactive) | 0.0356 µM (active) | > 100 µM (inactive) | > 100 µM (inactive) | > 100 µM (inactive) | > 100 µM (inactive) | > 100 µM (inactive) | > 100 µM (inactive) | > 100 µM (inactive) | > 100 µM (inactive) | > 100 µM (inactive)
Cc1cc(=O)n2nc(CSc3nnc(N)s3)sc2n1 | > 100 µM (inactive) | > 100 µM (inactive) | > 100 µM (inactive) | > 100 µM (inactive) | > 100 | > 100 µM (inactive) | > 100 µM (inactive) | > 100 µM (inactive) | > 100 µM (inactive) | > 100 µM (inactive) | > 100 µM (inactive) | > 100 µM (inactive) | > 100 µM (inactive) | > 100 µM (inactive) | > 100 µM (inactive) | > 100 µM (inactive) | > 100 µM (inactive) | > 100 µM (inactive) | > 100 µM (inactive)
O=c1ssc2c1Nc1c(ssc1=O)S2 | 17.9 µM (inactive) | 2.05 µM (inactive) | 18 µM (inactive) | 15.4 µM (inactive) | 11.4 | 4.48 µM (inactive) | 15 µM (inactive) | 24.3 µM (inactive) | 8 µM (inactive) | 16.1 µM (inactive) | 9.51 µM (inactive) | 23.4 µM (inactive) | 19.6 µM (inactive) | 12.6 µM (inactive) | 5.04 µM (inactive) | 17.9 µM (inactive) | 8.61 µM (inactive) | 16.4 µM (inactive) | 14.8 µM (inactive)
COC(=O)C(Cc1ccccc1)NC(=O)C(CCCNC(=N)N)NC(=O)OCc1ccccc1 (stereo not drawn) | > 100 µM (inactive) | > 100 µM (inactive) | > 100 µM (inactive) | > 100 µM (inactive) | > 100 | > 100 µM (inactive) | > 100 µM (inactive) | > 100 µM (inactive) | > 100 µM (inactive) | > 100 µM (inactive) | > 100 µM (inactive) | > 100 µM (inactive) | > 100 µM (inactive) | > 100 µM (inactive) | > 100 µM (inactive) | > 100 µM (inactive) | > 100 µM (inactive) | > 100 µM (inactive) | > 100 µM (inactive)
O=c1[nH]c(=O)n(COCc2ccccc2)c2ccsc12 | > 100 µM (inactive) | 60.4 µM (inactive) | > 100 µM (inactive) | > 100 µM (inactive) | 29.2 | > 10 µM (inactive) | 15.8 µM (inactive) | > 100 µM (inactive) | 59 µM (inactive) | > 100 µM (inactive) | > 100 µM (inactive) | > 100 µM (inactive) | > 100 µM (inactive) | 61.9 µM (inactive) | > 100 µM (inactive) | 73.8 µM (inactive) | > 100 µM (inactive) | > 100 µM (inactive) | > 100 µM (inactive)
C=CCN1C(=O)/C(=C/c2ccc(OC)cc2)N=C1SC/C=C/C | 84.5 µM (inactive) | 26.4 µM (inactive) | 29.2 µM (inactive) | 25.4 µM (inactive) | 24.2 | 20 µM (inactive) | 24 µM (inactive) | 33.7 µM (inactive) | 42.5 µM (inactive) | 26.7 µM (inactive) | 20.3 µM (inactive) | 53.7 µM (inactive) | 39 µM (inactive) | 30.4 µM (inactive) | 26.2 µM (inactive) | 34.4 µM (inactive) | 35.4 µM (inactive) | 35.1 µM (inactive) | 31.8 µM (inactive)
CC(C)(C)C(=O)CC1(O)C=C(O)C(O)(CC(=O)C(C)(C)C)O1 (stereo not drawn) | 13.6 µM (inactive) | 6.46 µM (inactive) | 21.7 µM (inactive) | 4.71 µM (inactive) | 8.77 | 24.9 µM (inactive) | 29.9 µM (inactive) | 18.7 µM (inactive) | 54.8 µM (inactive) | 43.2 µM (inactive) | 8.51 µM (inactive) | 18.3 µM (inactive) | 20.9 µM (inactive) | 44.8 µM (inactive) | 19.7 µM (inactive) | 36.8 µM (inactive) | – | 36.8 µM (inactive) | 23.6 µM (inactive)
O[C@@H]1[C@H](OC2c3ccccc3-c3ccccc32)[C@H](OCc2ccccc2)[C@@H]2OC[C@H]1O2 | > 100 µM (inactive) | 42.4 µM (inactive) | > 100 µM (inactive) | 41.5 µM (inactive) | > 100 | > 100 µM (inactive) | > 100 µM (inactive) | > 100 µM (inactive) | > 100 µM (inactive) | > 100 µM (inactive) | 34.1 µM (inactive) | > 100 µM (inactive) | > 100 µM (inactive) | 63.2 µM (inactive) | 71.9 µM (inactive) | 58.2 µM (inactive) | > 100 µM (inactive) | 43.3 µM (inactive) | 39.6 µM (inactive)
S=C(N/N=C(/c1ccccc1)c1ccccn1)Nc1ccccc1Cl | 0.209 µM (active) | < 0.01 µM (active) | < 0.01 µM (active) | < 0.01 µM (active) | 0.0179 | < 0.0865 µM (active) | 0.226 µM (active) | < 0.0227 µM (active) | < 0.215 µM (active) | 0.43 µM (active) | < 0.01 µM (active) | 0.0993 µM (active) | < 0.01 µM (active) | < 0.01 µM (active) | < 0.0448 µM (active) | 4.95 µM (inactive) | < 0.01 µM (active) | 0.0158 µM (active) | 0.0299 µM (active)
CC(=O)Oc1cc(OC(C)=O)c2c(c1C)CC[C@@H]1[C@@H]2CC[C@]2(C)[C@@H](OC(C)=O)CC[C@@H]12 | 24.5 µM (inactive) | 17.5 µM (inactive) | – | 15.8 µM (inactive) | 17.3 | 19.1 µM (inactive) | 20.4 µM (inactive) | 15.8 µM (inactive) | 22 µM (inactive) | 18.6 µM (inactive) | 11.9 µM (inactive) | 17.4 µM (inactive) | 22.5 µM (inactive) | 15.6 µM (inactive) | 8.15 µM (inactive) | 18.6 µM (inactive) | 18.9 µM (inactive) | 18 µM (inactive) | 20.2 µM (inactive)
Cc1cc2c(cc1-c1cc3c(cc1C)C(C(C)C)=C(O)C(=O)/C3=C\Nc1ccccn1)/C(=C/Nc1ccccn1)C(=O)C(O)=C2C(C)C | 45.8 µM (inactive) | 12.2 µM (inactive) | > 100 µM (inactive) | 64.7 µM (inactive) | 33.9 | 27.4 µM (inactive) | > 100 µM (inactive) | – | 31.8 µM (inactive) | 76.7 µM (inactive) | 25.7 µM (inactive) | 23 µM (inactive) | 27.9 µM (inactive) | 41.7 µM (inactive) | 21.7 µM (inactive) | 52.6 µM (inactive) | 48 µM (inactive) | 34.4 µM (inactive) | 29 µM (inactive)
COc1ccc(/C(=N/O)c2ccccc2-c2nc3ccccc3c(=O)n2-c2ccc(S(=O)(=O)Nc3ncccn3)cc2)cc1C | 21.1 µM (inactive) | 13.6 µM (inactive) | 18.9 µM (inactive) | 12.7 µM (inactive) | 14 | 11.8 µM (inactive) | 8.73 µM (inactive) | > 10 µM (inactive) | 12.2 µM (inactive) | 18.3 µM (inactive) | 12.2 µM (inactive) | > 10 µM (inactive) | 11.6 µM (inactive) | 19.7 µM (inactive) | 14.6 µM (inactive) | 20.8 µM (inactive) | 18 µM (inactive) | 11.8 µM (inactive) | 18.4 µM (inactive)
COc1cc2nc(-c3ccccc3F)nc(O)c2cc1OC | > 100 µM (inactive) | > 100 µM (inactive) | > 100 µM (inactive) | > 100 µM (inactive) | 49.2 | > 100 µM (inactive) | > 100 µM (inactive) | 59.4 µM (inactive) | > 100 µM (inactive) | > 100 µM (inactive) | 70.3 µM (inactive) | > 100 µM (inactive) | > 100 µM (inactive) | > 100 µM (inactive) | > 100 µM (inactive) | 63.8 µM (inactive) | – | – | > 100 µM (inactive)
